# Assays:
# Assay type in all cases: in vivo
# Botrytis cinerea [1] = assay: Use example 1: activity against gray mold on bell pepper leaves, 1 day protective application; conditions: efficacy in % of untreated control (Abbot), sprayed 1 day before inoculation, rated after 5 days, read-out: Observed activity (%)
# Method: (§1) The active compounds were prepared jointly or separately as a stock solution with 25 mg of active compound which was made up to 10 ml using a mixture of acetone and/or DMSO and the emulsifier Uniperol® EL (wetting agent having emulsifying and dispersing action based on ethoxylated alkylphenols) in a volume ratio of solvent/emulsifier of 99 to 1. The mixture was then made up with water to 100 ml. This stock solution was diluted with the solvent/emulsifier/water mixture described to the concentration of active compounds stated below.
# (§2) The active compounds epoxiconazole and pyraclostrobin were used as commercial formulations and diluted with water to the stated concentration.
# (§3) The visually determined percentages of infected leaf areas were converted into efficacies in % of the untreated control:
# (§4) The efficacy (E) is calculated as follows using Abbot's formula: E=(1−α/β)·100 • α corresponds to the fungicidal infection of the treated plants in % and • β corresponds to the fungicidal infection of the untreated (control) plants in % […]
# (§5) The expected efficacies of mixtures of active compounds were determined using Colby's formula (Colby, S. R. “Calculating synergistic and antagonistic responses of herbicide combinations”, Weeds, 15, 1967, p. 20-22) and compared with the observed efficacies. […]
# Botrytis cinerea [2] = assay: Use example 2: activity against gray mold on bell pepper leaves, 5 day protective application; conditions: sprayed 5 days before inoculation, read-out: Observed activity (%)
# Method: as §1, §2, §3
# The efficacy (E) is calculated as follows using Abbot's formula: E=(1−α/β)·100 • α corresponds to the fungicidal infection of the treated plants in % and • β corresponds to the fungicidal infection of the untreated (control) plants in %
# An efficacy of 0 means that the infection level of the treated plants corresponds to that of the untreated control plants; an efficacy of 100 means that the treated plants were not infected.
# The expected efficacies of mixtures of active compounds were determined using Colby's formula (Colby, S. R. “Calculating synergistic and antagonistic responses of herbicide combinations”, Weeds, 15, 1967, p. 20-22) and compared with the observed efficacies.
# Colby's formula: E=x+y−x·y/100 • E expected efficacy, expressed in % of the untreated control, when using the mixture of the active compounds A and B at the concentrations a and b • x efficacy, expressed in % of the untreated control, when using the active compound A at the concentration a • y efficacy, expressed in % of the untreated control, when using the active compound B at the concentration b
# Use example 2-activity against gray mold on bell pepper leaves caused by Botrytis cinerea, 5 day protective application
# Bell pepper seedlings of the cultivar “Neusiedler Ideal Elite” were, after 2-3 leaves were well developed, sprayed to runoff point with an aqueous suspension having the active compound concentration given below. After 5 days, the treated plants were inoculated with a spore suspension of Botrytis cinerea which comprised 1.7×10^6 spores/ml in a 2% strength aqueous biomalt solution. The test plants were then placed in a dark climatized chamber at 22 to 24° C. and high atmospheric humidity. After 5 days, the extent of the fungal infection on the leaves could be determined visually in %.
# Alternaria solani = assay: Use example 3: 5 day protective activity against early blight of tomato; conditions: sprayed 5 days before infection, rated after 5 days, read-out: Observed activity (%)
# Method: as §1, §2, §3, §4, §5
structure (smiles),measurement,setting,value
"Fc1ccc([C@]2(Cn3cncn3)O[C@H]2c2ccccc2Cl)cc1 (racemic) [epoxiconazole (A7), (2RS,3SR)-1-[3-(2-chlorophenyl)-2,3-epoxy-2-(4-fluorophenyl)propyl]-1H-1,2,4-triazole]",inhibition at 4 ppm,Botrytis cinerea [1],0%
CN1OC(c2ccc(Cl)cc2)CC1(C)c1cccnc1 (centres unmarked) [SYP-Z048 (I)],inhibition at 4 ppm,Botrytis cinerea [1],70%
same,inhibition at 16 ppm,"Botrytis cinerea [2]; 16 ppm, rated after 5 days",0%
same,inhibition at 1 ppm,Alternaria solani; 1 ppm,0%
"O=C(Nc1ccccc1-c1ccc(Cl)cc1)c1cccnc1Cl [boscalid (C3), 2-chloro-N-(4′-chlorobiphenyl-2-yl)nicotinamide]",inhibition at 4 ppm,Botrytis cinerea [2]; 4 ppm,0%
same,inhibition at 4 ppm,Alternaria solani; 4 ppm,56%
"COC(=O)N(OC)c1ccccc1COc1ccn(-c2ccc(Cl)cc2)n1 [pyraclostrobin (B9), methyl N-{2-[1-(4-chlorophenyl)-1H-pyrazol-3-yloxymethyl]phenyl}(N-methoxy)carbamate]",inhibition at 63 ppm,"Botrytis cinerea [2]; 63 ppm, commercial formulation",20%
"Cc1ccc(N(SC(F)(Cl)Cl)S(=O)(=O)N(C)C)cc1 [tolylfluanid (F29), N-dichlorofluoromethylthio-N′,N′-dimethyl-N-p-tolylsulfamide]",inhibition at 250 ppm,Botrytis cinerea [2]; 250 ppm,20%

# Reference: patent US7598206B2, “Fungicidal mixtures” (BASF Aktiengesellschaft, priority 2004, dated 2009)
